Each compound was assayed on Aβ production in 293 751 SWE and CHO 751 SWE cells (transfected with APP-751 Swedish mutation) (assay: Aβ production inhibition activity in cells (Aβ ELISA of conditioned media, normalized for cytotoxicity by MTT)). Settings: 5 μg/ml.
Assay type: cell-based
Description: Two cell lines (human kidney cell line 293 and Chinese hamster ovary cell line CHO) were stably transfected with the gene for APP-751 containing the double mutation Lys651 -Met652 to Asn651 -Leu652 (APP-751 numbering) commonly called the Swedish mutation using the method described in Citron et al., (1992) Nature 360:672-674. The transfected cell lines were designated as 293 751 SWE and CHO 751 SWE, and were plated in Corning 96 well plates at 2.5×10^4 or 1×10^4 cells per well respectively in Dulbecco's minimal essential media plus 10% fetal bovine serum. Following overnight incubation at 37° C. in an incubator equilibrated with 10% carbon dioxide (CO2), the media were removed and replaced with 200 μL per well of media containing a test compound. After a two hour pretreatment period, the media were again removed and replaced with fresh media containing the test compound and the cells were incubated for an additional two hours.
Test compound stocks were prepared in DMSO such that at the final concentration used in the treatment, the concentration of DMSO did no exceed 0.5%. After treatment, plates were centrifuged in a Beckman GPR at 1200 rpm for five minutes at room temperature to pellet cellular debris from the conditioned media. From each well, 100 μL of conditioned media were transferred into an ELISA plate precoated with antibody 266 against βAP-13-28 (Seubert et al., supra.) and stored at 4° C. overnight. An ELISA assay employing labeled antibody 6C6 (against βAP-1-16) was run the next day to measure the amount of Aβ produced.
Cytotoxic effects of the test compounds were measured by a modification of the method of Hansen et al., (1989) J. Immun. Meth. 119:203-210. To the cells remaining in the tissue culture plate, was added 25 μL of a 3, (4,5-dimethylthiazol-2-yl)2,5-diphenyltetrazolium bromide (MTT) stock solution (5 mg/mL) to a final concentration of […]. Cells were incubated at 37° C. for one hour, and cellular activity was stopped by the addition of an equal volume of MTT lysis buffer (20% w/v sodium dodecylsulfate in 50% DMF, pH 4.7). Complete extraction was achieved by overnight shaking at room temperature. The difference in the OD562 nm and the OD650 nm was measured in a Molecular Devices UVmax microplate reader as an indicator of the cellular viability.
The results of the Aβ ELISA were fit to a standard curve and expressed as ng/mL Aβ peptide. In order to normalize for cytotoxicity, these Aβ results were divided by the MTT results and expressed as a percentage of the results from a drug -free control.
The test compounds were assayed for Aβ production inhibition activity in cells at […] using the test. The results presented in Table 1 are the mean and standard deviation of at least six replicate assays. IC50 means the concentration of test compound in micromoles/liter required to inhibit Aβ production by 50%.

| SMILES | inhibition at 5 µg/mL [%] |
| --- | --- |
| Cc1cccc(CNC(=S)N(O)Cc2cccc(OCc3ccc(C(C)(C)C)cc3)c2)c1 [Compound 48] | 29 |
| CCCCCCNC(=S)N(O)Cc1ccc(OCc2ccc(Cl)c(Cl)c2)cc1 [Compound 55] | 37 |
| ON(Cc1ccc(-c2ccccc2)cc1)C(=S)NCc1ccccc1 [Compound 77] | 2 |
| CCCCCCNC(=S)N(O)Cc1ccc(OCc2cc(OC)cc(OC)c2)cc1 [Compound 61] | 28 |
| COc1cc(COc2ccc(CN(O)C(=S)NCc3ccccc3)cc2)cc(OC)c1 [Compound 60] | 17 |

Same assay, conditions: 10 μg/ml, % of drug-free control, normalized to MTT

| SMILES | inhibition at 10 µg/mL [%] |
| --- | --- |
| CCCCCCC(c1cccc(Oc2ccc(C(C)(C)C)cc2)c1)N(O)C(=S)Nc1ccc(Cl)c(C(F)(F)F)c1 (centres unmarked) [Compound 35] | 9 |
| CCCCOc1ccc(COc2cccc(CN(O)C(=S)NCc3ccccc3)c2)cc1 [Compound 66] | 21 |
| CC(c1cccc(Oc2ccc(C(C)(C)C)cc2)c1)N(C(=S)NCc1ccccc1)N(C)C (centres unmarked) [Compound 38] | 32 |
| CCCc1cc(C(C)(C)C)ccc1Oc1ccc(NC(=S)Nc2ccc(C)c(C)c2)cc1 [Compound 196] | 44 |
| O=C(Nc1ccccc1)Nc1nncs1 [Compound 255] | 1 |
| CCCc1cc(C(C)(C)C)ccc1Oc1ccc(NC(=S)NCc2cccc(C)c2)cc1 [Compound 194] | 31 |
| COC(=O)c1ccccc1NC(=O)Nc1ccc(Cl)c(Cl)c1 [Compound 142] | 22 |
| O=C(Nc1ccc(Cl)cc1)Nc1nncs1 [Compound 256] | 42 |
| CCCCCCNC(=S)N(O)Cc1ccc(-c2ccc(C(C)(C)C)cc2)cc1 [Compound 80] | 11 |
| CCCc1cc(C(C)(C)C)ccc1Oc1ccc(NC(=S)Nc2ccc(Cl)c(C(F)(F)F)c2)cc1 [Compound 193] | 29 |
| CCCCCCNC(=S)N(O)Cc1cccc(OCc2ccc(C(=O)CC)c(O)c2CCC)c1 [Compound 70] | 37 |
| CC(c1cccc(Oc2ccc(C(C)(C)C)cc2)c1)N(O)C(=O)NCc1ccccc1 (centres unmarked) [Compound 46] | 68 |
| CC(C)(C)c1ccc(-c2ccc(CN(O)C(=S)NCc3ccccc3)cc2)cc1 [Compound 81] | 20 |
| CC(c1cccc(Oc2ccc(C(C)(C)C)cc2)c1)N(O)C(=S)NCc1ccc(Cl)c(Cl)c1 (centres unmarked) [Compound 2] | 77 |
| CC(C)(C)OC(=O)N1CCCCC1CNC(=S)Nc1ccc(Oc2ccc(C(C)(C)C)cc2)cc1 (centres unmarked) [Compound 124] | 31 |
| CSc1ccc(NC(=O)Nc2cccc(Cl)c2Cl)cc1 [Compound 158] | 51 |

Same assay, conditions: 2 h pretreatment + 2 h incubation

| SMILES | IC50 [µM] |
| --- | --- |
| CCC(c1cccc(Oc2ccc(C(C)(C)C)cc2)c1)N(O)C(=S)NCc1cccc(OC)c1 (centres unmarked) [Compound 21] | 5.6 |
| CC(C)(C)c1ccc(Oc2ccc(NC(=S)NCc3ccccc3)cc2)cc1 [Compound 115] | 16.4 |
| CC(C)(C)c1ccc(Oc2ccc(CSC(=S)NCc3ccccc3)cc2)cc1 [Compound 198] | 10 |
| CC(C)(C)c1ccc(Oc2cccc(NC(=S)Nc3ccc(Cl)c(C(F)(F)F)c3)c2)cc1 [Compound 168] | 3.9 |
| CC(C)(C)c1ccc(SCc2ccc(CN(O)C(=S)Nc3ccc(Cl)c(C(F)(F)F)c3)cc2)cc1 [Compound 95] | 4.6 |
| CC(C)(C)c1ccc(Oc2ccc(NC(=S)NCc3ccc(Cl)c(Cl)c3)cc2)cc1 [Compound 133] | 6.5 |
| COc1c(C(C)(C)C)cc(COc2cccc(CN(O)C(=S)NCc3ccccc3)c2)cc1C(C)(C)C [Compound 72] | 8.1 |
| CCCCCCNC(=S)N(O)Cc1cccc(NC(=O)c2ccc(C(C)(C)C)cc2)c1 [Compound 85] | 18.6 |
| CSc1ccc(NC(=O)Nc2cc(Cl)c(Cl)c(Cl)c2)cc1 [Compound 155] | 5.8 |
| O=C(Nc1ccc(Cl)c(Cl)c1)Nc1nnc(Br)s1 [Compound 240, 1-(5-bromo-1,3,4-thiadiazol-2-yl)-3-(3,4-dichlorophenyl)urea] | 1.8 |
| COc1ccc(CNC(=S)Nc2ccc(Oc3ccc(C(C)(C)C)cc3)cc2)cc1 [Compound 111] | 8.3 |
| CC(C)(C)c1ccccc1Oc1ccc(NC(=S)Nc2cccc(C(F)(F)F)c2)cc1 [Compound 177] | 7.6 |
| CC(C)(C)c1ccc(Oc2ccc(NC(=S)NCc3nnc(C(F)(F)F)s3)cc2)cc1 [Compound 134] | 10.2 |
| Cc1ccc(CNC(=S)N(O)C(C)c2cccc(Oc3ccc(C(C)(C)C)cc3)c2)cc1Cl (centres unmarked) [Compound 8] | 9 |
| CC(C)(C)c1ccc(Oc2ccc(NC(=S)NCc3ccccn3)cc2)cc1 [Compound 120] | 15.6 |
| CC(C)(C)c1ccc(Oc2ccc(NC(=S)NCCCCc3ccccc3)cc2)cc1 [Compound 118] | 16.4 |
| CSc1ccc(NC(=O)Nc2cccc(Cl)c2)cc1Br [Compound 162] | 5.7 |
| CC(C)(C)c1ccc(Oc2ccc(NC(=S)Nc3ccccc3)cc2)cc1 [Compound 114] | 18.2 |
| CC(C)(C)c1ccc(Oc2ccc(NC(=S)NCCc3ccccc3)cc2)cc1 [Compound 116] | 19.8 |
| Cc1cc2nc(NC(=O)Nc3ccc(Cl)c(Cl)c3)[nH]c2cc1C [Compound 143] | 14.9 |
| CC(C)(C)c1ccc(Oc2ccc(NC(=S)Nc3cccc(C(F)(F)F)c3)cc2)cc1 [Compound 175] | 7.3 |
| CC(C)(C)c1ccc(Oc2cccc(CN(O)C(=S)NCc3ccc(Cl)c(Cl)c3)c2)cc1 [Compound 28] | 4.2 |

| SMILES | IC50 [µM] |
| --- | --- |
| CCCCCCNC(=S)N(O)Cc1cccc(Oc2ccc(C(C)(C)C)cc2CCC)c1 [Compound 102] | 6.1 |
| CCCCCCNC(=S)N(O)C(C)c1cccc(Oc2ccc(C(C)(C)C)cc2)c1 (centres unmarked) [Compound 19] | 11 |
| CC(C)(C)c1ccc(Oc2ccc(NC(=S)NCc3ccc(F)cc3)cc2)cc1 [Compound 113] | 5.6 |
| CC(C)(C)c1ccc(Oc2ccc(NC(=S)NCc3ccncc3)cc2)cc1 [Compound 122] | 23.5 |
| CC(C)(C)c1ccc(Oc2ccc(NC(=S)NCc3ccc(Cl)cc3)cc2)cc1 [Compound 106] | 9.2 |
| CSc1ccc(NC(=O)Nc2ccc(SC)c(Br)c2)cc1 [Compound 164] | 14.4 |
| CC(C)(C)c1cccc(Oc2cccc(NC(=S)Nc3ccc(Cl)c(C(F)(F)F)c3)c2)c1 [Compound 172] | 3.8 |
| CC(C)(C)c1ccc(Oc2ccc(NC(=S)NCc3ccc(F)c(F)c3)cc2)cc1 [Compound 129] | 4.5 |
| CC(c1cccc(Oc2ccc(C(C)(C)C)cc2)c1)N(O)C(=S)NCc1cccc(Cl)c1 (centres unmarked) [Compound 16] | 12 |
| CCCCCCNC(=S)N(O)Cc1cccc(S(=O)(=O)c2ccc(C(C)(C)C)cc2)c1 [Compound 90] | 22 |
| CC(C)(C)c1ccc(Oc2ccc(NC(=S)NCc3ccc(F)cc3Cl)cc2)cc1 [Compound 130] | 7.2 |
| CC(C)(C)c1ccc(Oc2ccccc2CN(O)C(=S)NCc2ccccc2)cc1 [Compound 180] | 11.6 |
| CCCc1cc(C(C)(C)C)ccc1Oc1ccc(NC(=S)Nc2cccc(C(F)(F)F)c2)cc1 [Compound 195] | 11 |
| Cc1ccc(CNC(=S)N(O)C(C)c2cccc(Oc3ccc(C(C)(C)C)cc3)c2)cc1 (centres unmarked) [Compound 7] | 15.6 |
| FC(F)(F)c1cc(NC(=S)Nc2ccc(Cl)c(C(F)(F)F)c2)ccc1Cl [Compound 166] | 2.8 |
| CC(C)(C)c1nnc(NC(=O)Nc2ccc(Cl)c(Cl)c2)s1 [Compound 237, 1-(5-t-butyl-1,3,4-thiadiazol-2-yl)-3-(3,4-dichlorophenyl)urea] | 2.9 |
| CC(C)(C)c1ccc(Oc2cccc(CNC(=S)NCc3ccc(Cl)c(C(F)(F)F)c3)c2)cc1 [Compound 41] | 4 |
| CC(C)(C)c1ccc(Oc2ccccc2N(O)C(=S)Nc2ccc(Cl)c(C(F)(F)F)c2)cc1 [Compound 171] | 10.8 |
| CC(C)(C)c1ccc(Oc2ccc(NC(=S)NCc3ccc(F)cc3F)cc2)cc1 [Compound 128] | 7.3 |
| CC(C)(C)c1cccc(Oc2cccc(N(O)C(=S)Nc3ccc(Cl)c(C(F)(F)F)c3)c2)c1 [Compound 173] | 2.8 |
| O=C(Nc1ccc(Cl)c(Cl)c1)Nc1nncs1 [Compound 235, 1-1,3,4-thiadiazol-2-yl-3-(3,4-dichlorophenyl)urea] | 10 |
| O=C(Nc1ccc(Cl)c(Cl)c1)Nc1nc2ccccc2[nH]1 [Compound 140] | 17.4 |

Reference: patent publication US5814646A, “Inhibitors of amyloid beta-protein production” (Eli Lilly and Company, priority 1995, dated 1998)
